This note sets out measurements from patent US20080058281A1, “Skin Lightening Compositions Comprising Vitamines and Flavonoids” (priority 2004, published 2008).

This experiment relates to Melanoderm (MatTek MEL-300-B) tissue, epidermal keratinocytes (NHEK) and melanocytes (NHM). Briefly: Melanoderm system: quantification of light (alkali-soluble) and dark (alkali-insoluble) melanin. The format is cell-based, human. As to conditions: for Total Melanin: Melanoderm tissue, agents in medium at Table 1 concentrations (Pycnogenol 10 μg/ml, Vit C 30 μg/ml, Vit E 1 μM, Vit B12 1 ng/ml, Vit A 15 ng/ml, cysteine 10 μg/ml, niacinamide 10 μg/ml), control 6.93; for Ratio of light melanin (μg/g)/dark melanin (μg/g) / Dark Melanin / Light Melanin / Dark Melanin, change relative to control / Light Melanin, change relative to control: Table 1 concentrations; for Ratio of light melanin (μg/g)/dark melanin (μg/g): control 0.14; for Dark Melanin: alkali-insoluble melanin, control 6.08; for Dark Melanin / Light Melanin: OD 340 nm; for Light Melanin: alkali-soluble melanin, control 0.85; for Dark Melanin, change relative to control: value in brackets under Dark Melanin; for Light Melanin, change relative to control: value in brackets under Light Melanin. The procedure: In these examples, evaluation of the ability of various agents, individually and in combination, to influence levels of dark and light melanin was tested using the commercially available Melanoderm™ system.
The MelanoDerm™ MatTeks system consists of normal, human-derived epidermal keratinocytes (NHEK) and melanocytes (NHM) which have been cultured to form a multilayered, highly differentiated model of the human epidermis. The NHM within co-cultures undergo spontaneous melanogenesis leading to tissues of varying levels of pigmentation. The tissues are produced using serum free medium without artificial stimulators of melanogenesis such as TPA and IBMX. The cultures are grown on cell culture inserts at the air-liquid interface, allowing for simulated topical application of agents to be tested. Introduction of agents into the medium simulates systemic application.
On delivery, the melanoderms (MatTek MEL-300-B) were placed onto metal ring supports in a 6 well plate containing 5 ml of pre-warmed maintenance media (of EPI-100-MM-PRF), using aseptic technique as per MatTek's protocol. Incubation was carried out overnight at 37° C. and 4% CO2 to allow the melanoderms to recover and equilibrate fully. Once placed under these conditions the MEL-300 tissue, undergo melanogenesis and differentiation.
Treatment was initiated on the following morning. Agents to be tested were dissolved in appropriate solvents and added to warmed media at final concentrations pre-assessed for melanocyte toxicity. Each time the media was changed, the spent media was aspirated from the melanoderms and reserved for testing for toxicity (Lactate Dehydrogenase (Promega)) and Interleukin-1 release (R&D systems) and replaced with a fresh dose of media plus test agents whether within the media of the melanoderm. Melanoderms were returned to the incubator.
On observation of differences in darkening, microscopic and macroscopic darkening were recorded photographically. Harvesting the tissue of the melanoderm involved cutting away the tissue from its plastic support and was followed by quantification of melanin present post-treatment versus untreated.
Melanoderm samples were cut from the plastic holders and the wet weight of tissue measured. 200 μl 1M NaOH/8M urea was added to the melanoderm sample the tissue homogenised in a microfuge tube. Samples were whirlimixed at RT for 30 minutes on and off to release the soluble melanin. Samples were centrifuged at 13,000 rpm for 10 minutes and supernatant containing soluble melanin was removed to a fresh tube.
Protein was extracted from the supernatant by addition of 200 μl chloroform and then by mixing vigorously for 1 minute. Phases were separated by centrifugation at 13,000 rpm for 10 minutes. 150 μl of supernatant was added to a microtitre plate (in duplicate) and the OD 340 nm ascertained.
1M NaOH was added to the remaining pellet which contains the insoluble melanin and the sample vortexed for one minute. The sample was then incubated in a water bath at 37° C. for 96 hrs with daily mixing to released the insoluble melanin. The sample was centrifuged for 10 minutes at 13,000 rpm with 200 μl of chloroform and 190 μl of the supernatant taken to a fresh tube. The supernatant was centrifuged again and 150 μl removed to a microtitre plate for analysis of absorption at 340 nm.
Absolute melanin is calculated as the actual melanin quantity calculated from a previously determined light melanin standard curve: x=(y−0.003)/4.76423 (where x=concentration of melanin and y=optical density at 340 nm).

With `N[C@@H](CS)C(=O)O` [Cysteine], the “Total Melanin” value came out at 5.96 µg/g, the “Ratio of light melanin (μg/g)/dark melanin (μg/g)” value (shortened to “Ratio of light melanin”) was found to be 0.13, the “Dark Melanin” value stood at 5.27 µg/g and the “Light Melanin” value is 0.69 µg/g. The “Dark Melanin, change relative to control” value is reported as “(−13.3%)” and the “Light Melanin, change relative to control” value was “(−18.8%)”.
In the case of `NC(=O)c1cccnc1` [Niacinamide], the “Total Melanin” value was 8.10 µg/g, the “Ratio of light melanin” value stood at 0.13, the “Dark Melanin” value was 7.16 µg/g and the “Light Melanin” value was found to be 0.94 µg/g. Also, the “Dark Melanin, change relative to control” value is listed as “(+17.8%)” and the “Light Melanin, change relative to control” value is “(+10.6%)”.
Regarding Vitamin A, the “Total Melanin” value was 7.81 µg/g and the “Dark Melanin” value stood at 6.71 µg/g.
On to Vitamin B12, for which the “Total Melanin” value was found to be 7.93 µg/g, the “Ratio of light melanin” value came to 0.19, the “Dark Melanin” value stood at 6.66 µg/g and the “Light Melanin” value amounted to 1.27 µg/g. In addition, the “Dark Melanin, change relative to control” value is listed as “(+9.5%)” and the “Light Melanin, change relative to control” value is on record as “(+49.4%)”.
